According to article PMC4361741 (Journal of psychopharmacology (Oxford, England), 2012):
Where a name gives a salt, the structure may show the parent alone.

Experiments:
CD-1 mice [1] = assay: Light dark box; type: in vivo; conditions: 8 and 15 d post-injection; diazepam 1 mg/kg 30 min prior
CD-1 mice [2] = assay: Elevated-plus maze; type: in vivo
CD-1 mice [3] = assay: Forced swim test; type: in vivo
κ-receptors [4] = molecular target: κ-receptors (Cavia porcellus, UniProt P41144); assay: Isolated guinea-pig ileum, U50,488 concentration-response curves
κ-receptors [5] = conditions: single injection, ref Endoh et al., 1992, Jones and Holtzman; cited from earlier work
CD-1 mice [6] = assay: Warm water tail-withdrawal test, block of U50,488-induced antinociception; type: in vivo; conditions: U50,488 10 mg/kg, single injection
Wistar rats = assay: κ-agonist; type: in vivo; conditions: 1 mg/kg
rat = conditions: 20mg/kg; ref Wiley et al., 2009; cited from earlier work
δ-receptor = δ-receptor (Rattus norvegicus, UniProt P33533); assay: [3H]-diprenorphine competitive binding assay, C6-δ cell membranes
rats = conditions: ref Wiley et al., 2009; cited from earlier work
CD-1 mice [7] = assay: Tail suspension test; type: in vivo; conditions: pilot studies, fluoxetine 10 mg/kg; control 6.9 ± 0.7 N
CD-1 mice [8] = assay: Sucrose consumption test; conditions: fluoxetine 10 mg/kg, vs saline-treated controls
μ-receptors = assay: Isolated guinea-pig ileum, DAMGO concentration-response curves; conditions: agonist at maximal doses
human κ-receptor = human κ-receptor (Homo sapiens, UniProt P41145); assay: [3H]-diprenorphine competitive binding assay, CHO-κ cell membranes; conditions: from Ki values, Table 1
[9] = diazepam 1 mg/kg 30 min prior to test, each test day

For `CN1C(=O)CN=C(c2ccccc2)c2cc(Cl)ccc21` [diazepam], the “LDB time spent in the lit compartment” value (CD-1 mice [1]) was “significantly different from saline treated controls”, the “EPM entries into the open arms” value (CD-1 mice [2]; [9]) was “significantly increased” and the “EPM time spent in the open arms” value (CD-1 mice [2]; [9]) was “significantly increased”.

With `Oc1ccc2c3c1O[C@H]1c4[nH]c5c(c4C[C@@]4(O)[C@@H](C2)N(CC2CC2)CC[C@]314)C[C@@]1(O)[C@H]2Cc3ccc(O)c4c3[C@@]1(CCN2CC1CC1)[C@H]5O4` [norBNI, Norbinaltorphimine] the “FST time spent immobile” value (CD-1 mice [3]; 6 and 13 d post-injection of antagonist) was “significantly decreased the time spent immobile”, the “behavioural effects in the FST still apparent, time post-injection” value (CD-1 mice [3]; single injection) was “up to 13 days post-injection” and the “reversibility of κ-antagonist effect on washout” value (κ-receptors [4]) was “reversed on washout”. For the same compound, the “effect on U50,488 Emax” value (κ-receptors [4]; increasing antagonist concentrations) was “without significant affect on Emax”, the “pA2 Schild plot (+ 95% CI), κ” value (κ-receptors [4]; vs U50,488, n=4 tissues) was 8.30 and the “time maximal levels maintained” value (κ-receptors [5]) was 7 to 10 days. The “time of peak effects post-administration” value (κ-receptors [5]) was ~ 24 h, the “time of returning to control levels” value (κ-receptors [5]) was 3–4 weeks and the “effect on antinociceptive effects of U50,488 (overall)” value (CD-1 mice [6]) was “significantly reduced the antinociceptive effects of U50,488”. For the same compound, the “reduction of U50,488-evoked diuresis” value (Wistar rats; 8 d post-treatment) was “about 30%”, the “reduction of U50,488-evoked diuresis” value (Wistar rats; 15 d post-treatment) was “maintained at 15 d post-treatment” and the “EPM number of entries into the open arms” value (CD-1 mice [2]; 7 d post-injection) was “significantly increased”. For the same compound, the “EPM time spent in the open arms” value (CD-1 mice [2]; 7 d post-injection) was “significantly increased the time spent”, the “EPM time spent in the open arms” value (CD-1 mice [2]; 14 d post-injection, 1 and 10 mg/kg) was “significantly increased the time spent in the open arms” and the “duration of antidepressant-like effects in the rat FST” value (rat) was “up to 4 wks post-injection”. For the same compound, the Ki (δ-receptor) was 0.46 ± 0.09 nM, the “effect on sucrose (0.5%) consumption” value (rats) was “had no effect on sucrose (0.5%) consumption” and the “reversal of the effects of U50,488 on sucrose consumption” value (rats) was “did reverse the effects of U50,488”.

For `CNCCC(Oc1ccc(C(F)(F)F)cc1)c1ccccc1` (centres unmarked) [fluoxetine, fluoxetine hydrochloride], the “FST time spent immobile” value (CD-1 mice [3]; fluoxetine 10 mg/kg 30 min prior, days 6 and 13) was “decreased the time spent immobile”, the TST average force (CD-1 mice [7]) was 7.7 ± 0.5 N and the “increase in sucrose consumption” value (CD-1 mice [8]) was 40%.

For DAMGO, the “inhibition of electrically-evoked twitches” value (μ-receptors) was ~ 90%.

In the case of `NC(N)=Nc1ccc2[nH]c3c(c2c1)C[C@@]1(O)[C@H]2Cc4ccc(O)c5c4[C@@]1(CCN2CC1CC1)[C@H]3O5` [GNTI, 5’-guanidinonaltrindole], the “κ-selectivity vs. δ” value (human κ-receptor) is reported as roughly 4.
